{
  "source": "paper PMC8765437",
  "about": "“GSK3640254 Is a Novel HIV-1 Maturation Inhibitor with an Optimized Virology Profile” (Antimicrobial Agents and Chemotherapy, 2022)",
  "system": "NLRepRlucP373S viruses containing Gag SDMs or gag/pr genes from clinical isolates",
  "experiment": "Multiple-cycle replication assay, NLRepRluc reporter viruses in MT-2 cells, luciferase endpoint",
  "type": "cell-based, HIV-1",
  "text": "Multiple-cycle assays using recombinant viruses or clinical isolates were used to assess MI antiviral activity as described previously ([10]). pNLRepRlucP373S (the P373S change is in the Gag gene and converts an outlier polymorphism in the NL4-3 gene to the prevalent amino acid in the population) plasmids containing SDMs in Gag or gag/pr regions from clinical isolates were transfected into HEK 293T cells, and the supernatant containing recombinant virus was harvested after 4 to 5 days. Virus was used to infect MT-2 cells in the presence of a 3-fold serially diluted compound at a final dimethyl sulfoxide (DMSO) concentration of 1%. The inocula of the reporter viruses were determined based on the luciferase activity detected on day 4 postinfection. The MOI (ratio of infectious virions to target cells) of reporter-free laboratory strains and clinical isolates was 0.005, as derived from a tissue culture infectious dose study. Clinical isolates or reporter-free viruses were examined in the reporter CEM-NKR-CCR5-Luc cells or PBMCs at MOIs ranging from 0.005 to 0.01. Each infection started with a drug-free preincubation of the cell-virus mixtures, performed at 37°C and 5% CO2 for either 1 h at 2 times the final cell density (reporter viruses) or 1 h (reporter-free laboratory strains) or 3 h (clinical isolates) using cell pellets in 0.5 mL of medium. After preincubation, cell-virus mixtures were added to compound-containing 96-well plates for a final cell density of either 10,000 (MT-2 cells for reporter viruses), 20,000 (MT-2 and PM1 cells for reporter-free laboratory strains), 200,000 (PBMCs for clinical isolates), or 500,000 (CEM-NKR-CCR5-Luc for reporter-free laboratory strains) cells per well. The CEM-NKR-CCR5-Luc cell assay was performed in the presence of Polybrene (10 μg/mL). Virus growth was determined on days 4 to 5 postinfection for reporter variants or days 5 to 11 for the other viruses. The reporter viruses were detected by a luciferase assay according to manufacturer protocols (Brite-Glo luciferase kit [Promega] for CEM-NKR-CCR5-Luc cells and Dual-Luciferase Reporter 1000 assay system [Promega] for the other cells), and luminescence was detected on a Wallac Trilux. The growth of clinical isolates in PBMCs was quantitated by reverse transcriptase activity in a 96-well scintillation proximity assay (SPA). Twenty microliters of culture supernatants was mixed with 40 μL of reaction cocktail (62.5 mM Tris-HCl [pH 7.8], 100 mM KCl, 0.0625% NP-40, 2.5 mM dithiothreitol [DTT], 6.25 mM MgCl2, 1 mM EGTA, 6.25 μg/mL of poly rA, 2.5 μg/mL of streptavidin SPA beads prebound with biotinylated-dT12-18, and 1 μCi of [^3H]TTP). Mixtures were incubated at 37°C for ∼3 h and quenched with 100 μl of 0.25 M EDTA per well. Luminescence was detected on a Wallac Trilux programmed for tritium counting with SPA beads in opaque plates. The growth of the reporter-free laboratory M-tropic strains and clinical isolates was monitored by a p24 enzyme-linked immunosorbent assay (ELISA; PerkinElmer Life Sciences, Waltham, MA) performed on culture supernatants. […] A 1:1,000 dilution of cell supernatant in PBS was generally observed to fall in the dynamic range of the endpoint signal.\nMaximal percent inhibition values were calculated as MPI = 100 – (mean signals at the 2 highest concentrations of compound/mean signal of 2 no-drug control wells) × 100.",
  "key": {"[1]": {"settings": "Human immunodeficiency virus 1, MT2, ΔV370, 10% FBS"}},
  "note": "Where two headings read alike, the source gives them in different places.",
  "data": [
    {"smiles": "C=C(C)[C@@H]1CC[C@]2(NCCN3CCS(=O)(=O)CC3)CC[C@]3(C)[C@H](CC[C@@H]4[C@@]5(C)CC=C(C6=CC[C@@](CF)(C(=O)O)CC6)C(C)(C)[C@@H]5CC[C@]43C)[C@@H]12", "note": "[GSK’254]", "values": [
      {"measurement": "EC90", "setting": "Human immunodeficiency virus 1, MT2, read-out: PBA EC90, subtype B gag/pr 93US155 (V370T)", "result": 14, "unit": "nM"},
      {"measurement": "EC90", "setting": "Human immunodeficiency virus 1, MT2, read-out: PBA EC90, subtype B gag/pr 411-1-C (Wild-type)", "result": 7, "unit": "nM"},
      {"measurement": "EC90", "setting": "Human immunodeficiency virus 1, MT2, read-out: PBA EC90, subtype B gag/pr 220162 (Wild-type)", "result": 40, "unit": "nM"},
      {"measurement": "EC90", "setting": "Human immunodeficiency virus 1, MT2, read-out: PBA EC90, subtype B gag/pr 400024 (V370M)", "result": 10, "unit": "nM"},
      {"measurement": "EC90", "setting": "Human immunodeficiency virus 1, MT2, read-out: PBA EC90, subtype B gag/pr 400051 (V370A)", "result": 21, "unit": "nM"},
      {"measurement": "EC90", "setting": "Human immunodeficiency virus 1, MT2, read-out: PBA EC90, subtype B gag/pr 1000038 (V362I/V370A)", "result": 43, "unit": "nM"},
      {"measurement": "EC90", "setting": "Human immunodeficiency virus 1, MT2, read-out: PBA EC90, subtype B gag/pr 1000156 (V362I)", "result": 63, "unit": "nM"},
      {"measurement": "EC90", "setting": "Human immunodeficiency virus 1, MT2, read-out: PBA EC90, subtype B gag/pr 1900120 (V370M)", "result": 11, "unit": "nM"},
      {"measurement": "EC90", "setting": "Human immunodeficiency virus 1, MT2, read-out: PBA EC90, subtype B gag/pr 1900140 (V362I)", "result": 47, "unit": "nM"},
      {"measurement": "EC90", "setting": "Human immunodeficiency virus 1, MT2, read-out: PBA EC90, subtype C gag/pr 93MW690", "result": 17, "unit": "nM"},
      {"measurement": "EC90", "setting": "Human immunodeficiency virus 1, MT2, read-out: PBA EC90, subtype C gag/pr 97ZA003", "result": 24, "unit": "nM"},
      {"measurement": "EC90", "setting": "Human immunodeficiency virus 1, MT2, read-out: PBA EC90, subtype C gag/pr 98CN009", "result": 27, "unit": "nM"},
      {"measurement": "EC90", "setting": "Human immunodeficiency virus 1, MT2, read-out: PBA EC90, subtype C gag/pr 98IN026", "result": 16, "unit": "nM"},
      {"measurement": "EC90", "setting": "Human immunodeficiency virus 1, MT2, read-out: PBA EC90, subtype C gag/pr 11657-3", "result": 37, "unit": "nM"},
      {"measurement": "EC90", "setting": "Human immunodeficiency virus 1, MT2, read-out: PBA EC90, subtype C gag/pr 20635-4", "result": 40, "unit": "nM"},
      {"measurement": "EC90", "setting": "Human immunodeficiency virus 1, MT2, read-out: PBA EC90, subtype C gag/pr 1700141", "result": 19, "unit": "nM"},
      {"measurement": "EC90", "setting": "Human immunodeficiency virus 1, MT2, read-out: PBA EC90, subtype C gag/pr 1900543", "result": 24, "unit": "nM"},
      {"measurement": "EC90", "setting": "Human immunodeficiency virus 1, MT2, read-out: mean PBA EC90, 44-member library of genotyped chimeric and SDM viruses, protein-binding adjusted", "result": 33, "unit": "nM"},
      {"measurement": "EC50", "setting": "Human immunodeficiency virus 1, MT2, subtype B gag/pr 4NRR (Wild-type)", "result": 1, "unit": "nM"},
      {"measurement": "EC50", "setting": "Human immunodeficiency virus 1, MT2, subtype B gag/pr 28-MDR (Wild-type)", "result": 1, "unit": "nM"},
      {"measurement": "EC50", "setting": "Human immunodeficiency virus 1, MT2, subtype B gag/pr 92BR014 (V370M)", "result": 1, "unit": "nM"},
      {"measurement": "EC50", "setting": "Human immunodeficiency virus 1, MT2, subtype B gag/pr 92BR018 (V, QAΔ)", "result": 1, "unit": "nM"},
      {"measurement": "EC50", "setting": "Human immunodeficiency virus 1, MT2, subtype B gag/pr 92TH014 (V362I)", "result": 1, "unit": "nM"},
      {"measurement": "EC50", "setting": "Human immunodeficiency virus 1, MT2, subtype B gag/pr 92TH026 (V362I)", "result": 4, "unit": "nM"},
      {"measurement": "EC50", "setting": "Human immunodeficiency virus 1, MT2, subtype B gag/pr 92US072 (V362I)", "result": 1, "unit": "nM"},
      {"measurement": "EC50", "setting": "Human immunodeficiency virus 1, MT2, subtype B gag/pr 92US729 (Wild-type)", "result": 1, "unit": "nM"},
      {"measurement": "EC50", "setting": "Human immunodeficiency virus 1, MT2, subtype B gag/pr 93BR008 (V362I)", "result": 2, "unit": "nM"},
      {"measurement": "EC50", "setting": "Human immunodeficiency virus 1, MT2, subtype B gag/pr 93BR009 (V370M)", "result": 2, "unit": "nM"},
      {"measurement": "EC50", "setting": "Human immunodeficiency virus 1, MT2, subtype B gag/pr 93BR017 (V, QAΔ)", "result": 2, "unit": "nM"},
      {"measurement": "EC50", "setting": "Human immunodeficiency virus 1, MT2, subtype B gag/pr 93BR022 (V, QAΔ)", "result": 3, "unit": "nM"},
      {"measurement": "EC50", "setting": "Human immunodeficiency virus 1, MT2, subtype B gag/pr 93TH0647 (V362I)", "result": 2, "unit": "nM"},
      {"measurement": "EC50", "setting": "Human immunodeficiency virus 1, MT2, subtype B gag/pr 93US141 (V362I)", "result": 2, "unit": "nM"},
      {"measurement": "EC50", "setting": "Human immunodeficiency virus 1, MT2, subtype B gag/pr 93US155 (V370T)", "result": 1, "unit": "nM"},
      {"measurement": "EC50", "setting": "Human immunodeficiency virus 1, MT2, subtype B gag/pr 411-1-C (Wild-type)", "result": 0.5, "unit": "nM"},
      {"measurement": "EC50", "setting": "Human immunodeficiency virus 1, MT2, subtype B gag/pr 220162 (Wild-type)", "result": 2, "unit": "nM"},
      {"measurement": "EC50", "setting": "Human immunodeficiency virus 1, MT2, subtype B gag/pr 400024 (V370M)", "result": 1, "unit": "nM"},
      {"measurement": "EC50", "setting": "Human immunodeficiency virus 1, MT2, subtype B gag/pr 400051 (V370A)", "result": 1, "unit": "nM"},
      {"measurement": "EC50", "setting": "Human immunodeficiency virus 1, MT2, subtype B gag/pr 1000038 (V362I/V370A)", "result": 3, "unit": "nM"},
      {"measurement": "EC50", "setting": "Human immunodeficiency virus 1, MT2, subtype B gag/pr 1000156 (V362I)", "result": 4, "unit": "nM"},
      {"measurement": "EC50", "setting": "Human immunodeficiency virus 1, MT2, subtype B gag/pr 1900120 (V370M)", "result": 1, "unit": "nM"},
      {"measurement": "EC50", "setting": "Human immunodeficiency virus 1, MT2, subtype B gag/pr 1900140 (V362I)", "result": 1, "unit": "nM"},
      {"measurement": "EC50", "setting": "Human immunodeficiency virus 1, MT2, subtype C gag/pr 93MW690", "result": 1, "unit": "nM"},
      {"measurement": "EC50", "setting": "Human immunodeficiency virus 1, MT2, subtype C gag/pr 97ZA003", "result": 1, "unit": "nM"},
      {"measurement": "EC50", "setting": "Human immunodeficiency virus 1, MT2, subtype C gag/pr 98CN009", "result": 1, "unit": "nM"},
      {"measurement": "EC50", "setting": "Human immunodeficiency virus 1, MT2, subtype C gag/pr 98IN026", "result": 1, "unit": "nM"},
      {"measurement": "EC50", "setting": "Human immunodeficiency virus 1, MT2, subtype C gag/pr 10215-6", "result": 1, "unit": "nM"},
      {"measurement": "EC50", "setting": "Human immunodeficiency virus 1, MT2, subtype C gag/pr 11657-3", "result": 2, "unit": "nM"},
      {"measurement": "EC50", "setting": "Human immunodeficiency virus 1, MT2, subtype C gag/pr 20635-4", "result": 1, "unit": "nM"},
      {"measurement": "EC50", "setting": "Human immunodeficiency virus 1, MT2, subtype C gag/pr 20706-3", "result": 1, "unit": "nM"},
      {"measurement": "EC50", "setting": "Human immunodeficiency virus 1, MT2, subtype C gag/pr 1300495", "result": 1, "unit": "nM"},
      {"measurement": "EC50", "setting": "Human immunodeficiency virus 1, MT2, subtype C gag/pr 1700141", "result": 2, "unit": "nM"},
      {"measurement": "EC50", "setting": "Human immunodeficiency virus 1, MT2, subtype C gag/pr 1900543", "result": 1, "unit": "nM"},
      {"measurement": "EC50", "setting": "[1]", "result": 4.4, "unit": "nM"},
      {"measurement": "EC90", "setting": "[1]", "result": 7.8, "unit": "nM"},
      {"measurement": "MPI", "setting": "SDM A326T/V362I/V370A", "result": 69, "unit": "%"},
      {"measurement": "MPI", "setting": "SDM A364V", "result": 70, "unit": "%"},
      {"measurement": "MPI", "setting": "SDM R361K/V362I/L363M", "result": 91, "unit": "%"},
      {"measurement": "MPI", "setting": "SDM T332S/V362I/prR41G", "result": 97, "unit": "%"},
      {"measurement": "MPI", "setting": "SDM V362I/V370A", "result": 91, "unit": "%"},
      {"measurement": "MPI", "setting": "SDM V370A", "result": 97, "unit": "%"},
      {"measurement": "MPI", "setting": "SDM Wild type", "result": 98, "unit": "%"},
      {"measurement": "MPI", "setting": "SDM ΔV370", "result": 96, "unit": "%"}
    ]}
  ]
}
